Test results as given in publication PMC8586700 (Frontiers in Pharmacology, 2021).
Where two headings read alike, the source gives them in different places.

What was measured:
[1] = Repeated administration, drug concentrations of plasma and brain; format: in vivo, SD rats; conditions: for Detection in brain tissue: after repeated administration; for Mean concentrations±sd in brain after multiple doses: brain homogenate; for Effect on plasma concentration of DHC: repeated administration with CUR
Procedure: (§1) Plasma or brain homogenate of SD rats was taken 50 μL, internal standard solution of 50 μL and protein precipitator of 150 μL were added. After eddy oscillation for 3 min, supernatant was separated by centrifugation.
The concentration of drugs in plasma and brain homogenate after repeated administration was determined according to the same grouping and administration method. The loading dose of 200 mg kg^−1 was given for the first time and half doses for four consecutive days.
(§2) Plasma was collected by centrifugation of blood at 3000 RPM for 10min, and stored at -80 °C. Brain tissue of SD rat was dissected, weighed and added with normal saline at a volume of 2 ml g^−1. After homogenating brain tissue for 3 min by a homogenizer at 14,000 RPM, the supernatant was collected after centrifugation at 12,000 RPM for 10 min.

[2] = Stability experiment in plasma and brain homogenate samples; format: in vitro ADME, SD rats; conditions: for Recoveries after being kept at room temperature for 12 h: plasma samples
Procedure: Three blank samples of plasma and brain homogenate of SD rats were added into the mixed standard solution. The stability experiment included placing at room temperature for 12 h, repeatedly freeze-thaw for three times and frozen for 15 days.

[3] = Solubility in solvents and vehicles; format: physicochemical
Excerpt: DMSO is a universal organic solvent that is mutually soluble with most solvents and has a protective effect on red blood cells, platelets, bone marrow and various tissue cells during cryopreservation ([Willson et al., 1965]).

[4] = parameters: method as in Yang et al., 2007; conditions: ref Yang et al., 2007; cited from earlier work
rats = test system: rats; parameters: method as in Willson et al., 1965; conditions: intragastric administration, ref Willson et al., 1965; cited from earlier work
[5] = Pharmacokinetic experiment, single intragastric administration, plasma by HPLC-UV; format: in vivo, SD rats; conditions: for concentration at 40 min / concentration at 60 min / concentration at 90 min / concentration at 150 min / concentration at 210 min: SD (Sprague-Dawley); for concentration at 40 min / concentration at 60 min / concentration at 90 min / concentration at 150 min / concentration at 210 min / concentration at 20 min / concentration at 270 min / concentration at 330 min / AUC / Cmax / half-life / Tmax: rat, plasma, po; for concentration at 20 min / concentration at 270 min / concentration at 330 min: SD; for AUC / Cmax / half-life / Tmax: Sprague-Dawley, 150 mg/kg, PIP or ILE 150 mg kg^−1 oral together with CUR 200 mg kg^−1; for AUC: read-out: AUC(0-tn) (converted); for Cmax: read-out: Cmax; for half-life: read-out: T1/2(el); for Tmax: read-out: Tmax (converted); for Effect of combined administration with CUR on plasma concentration of DHC: single administration, drug-time curve
Procedure: An Agilent 1200 HPLC system was used. […] The flow rate was set at 1 ml min^−1 and detection wavelength was 420, 340 and 323 nm. Injection volume was 5 μL. The column temperature was set at 30°C.
as §1
Blood samples were collected from tail vein at 20 min, 40 min, 1, 1.5, 2.5, 3.5, 4.5, and 5.5 h after intragastric administration.
as §2

[6] = ILE compared with PIP at the same dose
[7] = Mean concentrations ±sd, ILE, Group C (CUR 200 mg kg^−1 and ILE 150 mg kg^−1 oral)
[8] = Group B (CUR 200 mg kg^−1 and PIP 150 mg kg^−1 oral), read-out: Mean concentrations ±sd, PIP

COc1cc(/C=C/C(=O)CC(=O)/C=C/c2ccc(O)c(OC)c2)ccc1O [CUR, Curcumin]
Detection in brain tissue [1]: could not be detected
recovery at 12 h ([2]; SD, rat, brain homogenate samples, read-out: Recovery after 12 h placement at room temperature): < 15%
Recoveries after repeated freezing-thawing for three times ([2]; brain homogenate): over 100%
Recoveries after repeated freezing-thawing for three times ([2]; plasma): over 100%
Recoveries after being kept at room temperature for 12 h [2]: less than 30%
Solubility in DMSO [3]: well dissolved
Solubility in EtOH and glycerin [3]: slightly soluble
Solubility in water and various plant extracted oils [3]: insoluble
Oral bioavailability [4]: 1%

C[S+](C)[O-] [DMSO, dimethyl sulfoxide]
Adverse reactions in the experimental animals ([1]; DMSO as solvent of intragastric administration for five consecutive days, SD rats): no adverse reactions occurred
LD50 (rats): 28300 mg/kg

O=C(/C=C/c1ccc2c(c1)OCO2)N1CCCCC1 [ILE, Ilepcimide, reference compound]
AUC(0-tn) increased by [5, 6]: 32.1%
T1/2 decreased by [5, 6]: 40.2%
Tmax increased by [5, 6]: 1.7 times
concentration at 40 min [5, 7]: 1600 ± 100 ng/mL
concentration at 60 min [5, 7]: 2000 ± 500 ng/mL
concentration at 90 min [5, 7]: 2800 ± 900 ng/mL
concentration at 150 min [5, 7]: 5500 ± 1900 ng/mL
concentration at 210 min [5, 7]: 3400 ± 500 ng/mL
concentration at 20 min [5, 7]: 1300 ± 800 ng/mL
concentration at 270 min [5, 7]: 2200 ± 400 ng/mL
concentration at 330 min [5, 7]: 1200 ± 800 ng/mL
AUC [5]: 15400 ng·h/mL
Cmax [5]: 5500 ± 2000 ng/mL
half-life [5]: 1.67 ± 0.287 h
Tmax [5]: 3.07 h
Effect of combined administration with CUR on plasma concentration of DHC [5]: could increase plasma concentration of DHC
Detection in brain tissue [1]: could be detected
Mean concentrations±sd in brain after multiple doses [1]: 1600 ± 200 ng/mL
Effect on plasma concentration of DHC [1]: could both increase the plasma concentration of DHC
Recoveries after repeated freezing-thawing for three times ([2]; brain homogenate): over 100%
Recoveries after repeated freezing-thawing for three times ([2]; plasma): over 100%
Solubility in DMSO [3]: well dissolved

O=C(/C=C/C=C/c1ccc2c(c1)OCO2)N1CCCCC1 [PIP, Piperine, reference compound]
concentration at 40 min [5, 8]: 2100 ± 700 ng/mL
concentration at 60 min [5, 8]: 4200 ± 700 ng/mL
concentration at 90 min [5, 8]: 2600 ± 500 ng/mL
concentration at 150 min [5, 8]: 2400 ± 900 ng/mL
concentration at 210 min [5, 8]: 2200 ± 500 ng/mL
concentration at 20 min [5, 8]: 1400 ± 400 ng/mL
concentration at 270 min [5, 8]: 1700 ± 400 ng/mL
concentration at 330 min [5, 8]: 1400 ± 200 ng/mL
AUC [5]: 11700 ng·h/mL
Cmax [5]: 4200 ± 700 ng/mL
half-life [5]: 2.79 ± 0.59 h
Tmax [5]: 1.13 h
Effect of combined administration with CUR on plasma concentration of DHC [5]: no obvious effect
Mean concentrations±sd, PIP in plasma after multiple doses ([1]; Group II: CUR and PIP): 2400 ± 500 ng/mL
Detection in brain tissue [1]: could be detected
Mean concentrations±sd in brain after multiple doses [1]: 2100 ± 100 ng/mL
Effect on plasma concentration of DHC [1]: could both increase the plasma concentration of DHC
Recoveries after repeated freezing-thawing for three times ([2]; brain homogenate): over 100%
Recovery after 12 h placement at room temperature ([2]; brain homogenate samples): only showed slight decrease
Recoveries after repeated freezing-thawing for three times ([2]; plasma): over 100%
Recoveries after being kept at room temperature for 12 h [2]: lower than 75%
Solubility in DMSO [3]: well dissolved
